Legend:
[1] = system: HCV luciferase replicon; test: HCV luciferase replicon IC50 assay in Huh7 cells; settings: for IC50: Hepatitis C virus, Huh-7, 48 h, Huh7 cells containing HCV luciferase replicon, cells exposed to drug for 48 h; for Therapeutic Index (TC50/IC50): TC50 in Huh7 / IC50 HCV replicon, 48 h
Experimental: Plating Cells: The Luciferase replicon cell line was passaged when it was at about 70% confluency. The cells were counted by using a hemocytometer and diluted to 1×10^5 cells per mL in DMEM+10% FBS+[…] G415. The cells were plated as follows: 100 μL of the cells (10,000 cells) per well in a white-walled 96-well plate. The cells were allowed to attach for 24 hours at 37° C.
(§1) Treating the cells: Media (DMEM+2% FBS) was pre-warmed to 37° C. […] The 96-well plate was removed from the 37° C. incubator, and the media replaced on the plate with the serial dilutions of the test drug. The plate was then returned to 37° C. for 48 h.
Luciferase Assay: The Bright-Glo reagent (Promega Corporation, Madison, Wis.) was removed from the −80° C. freezer and allowed to thaw it at 4° C. in the dark. The amount of reagent necessary for the experiment (3.65 mL) was removed, and the remaining reagent was returned to −80° C. The Glo Lysis Buffer and the Bright Glow reagent were allowed to warm to room temperature for 30 min in the dark. The 96 well plate was removed from the incubator and the cells to allowed cool to room temperature for 30 min. The media was removed from the cells, and each well was gently washed in 100 μL of phosphate buffered saline (PBS). The PBS was removed and then 50 μL of the Glo Lysis Buffer was added to each well, followed by gently rocking the plate for 15 min at room temperature in the dark to ensure complete cell lysis. To each well of the 96-well plate was added 50 μL of the Bright Glo reagent and it was mixed well with the lysate. The plate was inserted into a GloMax 96 plate reader and allowed to sit for 5 min in the dark for the luciferase reaction to reach a steady state. The luminescence on the plate was read by using the pre-installed “Bright Glo” Promega program (Synergy Software) and the data were collected and saved. The data were fit to a 4 parameter logistic curve using Kaleidagraph using the following equation: 100/(1+(x/m3)^m4).
The data in Table 1 were determined for cells exposed to drug for 48 h. The IC50 is the concentration of each compound necessary to inhibit the replication of the HCV luciferase replicon to 50%.
That is, the cells were exposed to drug for 2 h at 37° C., followed by 46 h at 37° C. or incubated in the presence of drug for 48 h at 37° C.

[2] = in vitro
Experimental: (§2) Plating Cells: The Huh7 cell line was passaged when it was at about 70% confluency. The cells were counted using a hemocytometer, followed by dilution of the cells to 0.5×10^5 cells per mL in DMEM+10% FBS. The cells were plated at 100 μL (5,000 cells) per well in a clear 96-well plate. The cells were allowed to attach for 24 hours at 37° C.
(§3) Treating the cells: The media (DMEM media without phenol red+2% FBS media) was pre-warmed to 37° C. […] This provided a final DMSO concentration of 0.5%. The 100 mM stock of 3,5-dichlorobenzoic acid was diluted in DMEM without phenol red+2% FBS to a concentration of 0.5 mM. The working 0.5 mM diluted test drugs were serially diluted in DMEM without phenol red+2% FBS+0.5% DMSO in order to maintain a constant concentration of DMSO in each condition. The 96-well plate was removed from the 37° C. incubator, and the media on the plate was replaced with media containing diluted test drug.
(§4) MTS Assay: The reagents from CellTiter 96 kit (Promega Corporation, Madison, Wis.) were thawed at room temperature in the dark for 1 h. The 96-well plate was removed from the 37° C. incubator at 48 h after drug treatment. 20 μL of the combined MTS/PMS reagent to each well of the plate, mixed, and the plate returned to 37° C. The absorbance of each well at 490 nm and 650 nm was determined using the Flexstation 3 microplate reader in endpoint mode every hour for 3 h. The solutions in the wells were mixed prior to each reading. The data were fit to the Emax model: y=(Emax*x)/(TC50+x), where Emax is the maximum inhibition and TC50 is the inhibitory dose 50%. Alternatively, the data can be fit to the Emax sigmoidal model: y=(Emax*x^slope)/(TC50^slope+x^slope), where slope is the Hill Slope.

[3] = TC50 MTS assay with human cancer cell lines: Huh7; format: cell-based; settings: human, Huh7 cells; 48 h drug treatment; no hENT1 inhibitor; read-out: TC50 (μM) in Huh7 cells Control
Experimental: (§5) Plating Cells: The Huh7, HEPG2, HEK293, MCF-7, PK9, RPK9, or BxPC3 cells were passaged when they were about 70% confluent. The cells were counted using a hemocytometer, and then diluted cells to 0.5×10^5 cells per mL in DMEM+10% FBS. 100 µL of the cells (5,000 cells) were plated per well in a clear 96-well plate. The cells were allowed to attach for 24 hours at 37° C.
(§6) Treating the cells: Pre-warm the DMEM media without phenol red+2% FBS media to 37° C. […] This will bring the final DMSO concentration to 0.5%. Use these 0.5 mM dilutions to further serially the drugs in DMEM without phenol red+2% FBS+0.5% DMSO. This will keep the concentration of DMSO in each condition identical. Remove the 96-well plate from the 37° C. incubator. Replace the media on the plate with the dilutions of the drugs. Stagger these treatments by 1 h and write the treatment time on each set of plates. Return to 37° C. for 48 h or 96 h as indicated.
as §4, with “Fit Data” for “The data were fit”, “Alternatively, fit” for “Alternatively,”, “data” for “data can be fit”
(§7) Each TC50 was the average value of three measurements as described herein. […] The RPK9 cells are deficient in deoxycytidine kinase (“dCK”) activity, an enzyme required for the initial phosphorylation of dFdC to dFdCMP (see FIG. 2).

[4] = system: hENT1; test: TC50 MTS assay with human cancer cell lines: Huh7; format: cell-based; settings: human, Huh7 cells; 48 h drug treatment; 10 μM S-(4-nitrobenzyl)-6-thioinosine (hENT1 inhibitor) added; read-out: TC50 (μM) in Huh7 cells NBTI
Experimental: as §5, §6
as §4, with “Fit Data” for “The data were fit”, “Alternatively, fit” for “Alternatively,”, “data” for “data can be fit”
as §7

[5] = Compound solubility in media; format: physicochemical; settings: DMEM+2% FBS cell culture media, 37 °C, plasma or biological fluid, kinetic from dmso stock; DMEM+2% FBS media
Experimental: as §1

[6] = system: HCV luciferase replicon; test: Reversal of anti-HCV activity by exogenous nucleosides; format: cell-based, hepatitis C virus (HCV); settings: 48 h
Experimental: After 48 hours, the cells were lysed, and the total luciferase activity was determined. […] Where indicated, either 50 μM cytidine (C) or 50 μM 2′-deoxycitidine (dC) was also included.
The cells were plated, incubated with drug, and luciferase activity assayed essentially as described herein above. The incubation with drug was for 48 h.

[7] = TC50 MTS assay with human cancer cell lines: HEK293; format: cell-based; settings: HEK293 cells, 96 h drug treatment
Experimental: as §5, §6
as §4, with “Fit Data” for “The data were fit”, “Alternatively, fit” for “Alternatively,”, “data” for “data can be fit”
as §7

[8] = system: Huh7 cells; test: in vitro; settings: read-out: TC50; control Huh7 cells; 48 h drug exposure; MTS
Experimental: as §2, §3, §4

[9] = system: Huh7 cells; test: TC50 MTS assay with human cancer cell lines: Huh7; format: cell-based; settings: 96 h drug treatment
Experimental: as §5, §6
as §4, with “Fit Data” for “The data were fit”, “Alternatively, fit” for “Alternatively,”, “data” for “data can be fit”
as §7

[10] = TC50 MTS assay with human cancer cell lines: MCF-7; format: cell-based; settings: MCF-7 cells, 96 h drug treatment
Experimental: as §5, §6
as §4, with “Fit Data” for “The data were fit”, “Alternatively, fit” for “Alternatively,”, “data” for “data can be fit”
as §7

[11] = TC50 MTS assay with human cancer cell lines: HEPG2; format: cell-based; settings: HEPG2 cells, 96 h drug treatment
Experimental: as §5, §6
as §4, with “Fit Data” for “The data were fit”, “Alternatively, fit” for “Alternatively,”, “data” for “data can be fit”
as §7

O=C(Nc1ccn(C2O[C@H](CO)[C@@H](O)C2(F)F)c(=O)n1)c1ccc(Cl)cc1 (stereo partly drawn) [VV-033H]
IC50 [1]: 0.0376 ± 0.0054 µM | Therapeutic Index (TC50/IC50) [1]: 3670 | CC50 at 48 h [2]: 138 ± 28 µM

CCc1ccc(C(=O)Nc2ccn(C3O[C@H](CO)[C@@H](O)C3(F)F)c(=O)n2)cc1 (stereo partly drawn) [VV-038]
IC50 [1]: 0.0584 ± 0.0099 µM | Therapeutic Index (TC50/IC50) [1]: 8430 | CC50 at 48 h [3]: 492 ± 58 µM | CC50 at 48 h [4]: 360 ± 80 µM

O=C(Nc1ccn(C2O[C@H](CO)[C@@H](O)C2(F)F)c(=O)n1)c1ccc(Cl)c(Cl)c1 (stereo partly drawn) [VV-007]
IC50 [1]: 0.0174 ± 0.0018 µM | Therapeutic Index (TC50/IC50) [1]: >5750 | CC50 at 48 h [2]: > 100 µM | solubility [5]: > 500 µM

COc1ccc(C(=O)Nc2ccn(C3O[C@H](CO)[C@@H](O)C3(F)F)c(=O)n2)cc1 (stereo partly drawn) [VV-013]
IC50 [1]: 0.06 ± 0.0082 µM | Therapeutic Index (TC50/IC50) [1]: 9530 | CC50 at 48 h [2]: 572 ± 73 µM | solubility [5]: > 500 µM

O=C(O)c1cc(Cl)cc(Cl)c1 [3,5-dichlorobenzoic acid, reference compound]
effect on the HCV luciferase replicon ([6]; up to 500 μM): little effect

COc1c(Cl)cc(C(=O)Nc2ccn(C3O[C@H](CO)[C@@H](O)C3(F)F)c(=O)n2)cc1Cl (stereo partly drawn) [VV-012]
IC50 [1]: 0.0193 ± 0.0016 µM | Therapeutic Index (TC50/IC50) [1]: >5180 | CC50 at 48 h [2]: > 100 µM | solubility [5]: > 500 µM

COc1cc(OC)cc(C(=O)Nc2ccn([C@@H]3O[C@H](CO)[C@@H](O)C3(F)F)c(=O)n2)c1 [Compound G3DB, N^4-(3,5-Dimethoxybenzoyl)gemcitabine]
CC50 at 96 h [7]: 4.02 ± 0.79 µM | IC50 [1]: 0.0734 ± 0.012 µM | Therapeutic Index (TC50/IC50) [1]: 13100 | CC50 [8]: 962 ± 110 µM | CC50 [9]: 18.5 ± 5.32 µM | CC50 at 96 h [10]: 1.57 ± 0.338 µM | CC50 at 96 h [11]: 3.86 ± 1.42 µM | reversal of the inhibition of the HCV luciferase replicon by deoxycytidine and cytidine ([6]; drug 1000, 100 or 25 nM, 50 μM cytidine or 2′-deoxycitidine): reversal | solubility [5]: > 500 µM

O=C(Nc1ccn(C2O[C@H](CO)[C@@H](O)C2(F)F)c(=O)n1)c1ccc(Cl)cc1Cl (stereo partly drawn) [VV-006]
IC50 [1]: 0.0775 ± 0.007 µM | Therapeutic Index (TC50/IC50) [1]: >1290 | CC50 at 48 h [2]: > 100 µM | solubility [5]: < 500 µM

NC(=O)c1ncn([C@@H]2O[C@H](CO)[C@@H](O)[C@H]2O)n1 [ribavirin, reference compound]
IC50 [1]: 51.6 ± 2.08 µM | Therapeutic Index (TC50/IC50) [1]: 10.2 | CC50 at 48 h [2]: 527 ± 68.2 µM | solubility [5]: > 500 µM

COc1cccc(OC)c1C(=O)Nc1ccn([C@@H]2O[C@H](CO)[C@@H](O)C2(F)F)c(=O)n1 [Compound G2DB, N^4-(2,6-Dimethoxybenzoyl)gemcitabine]
IC50 [1]: 0.451 ± 0.037 µM | Therapeutic Index (TC50/IC50) [1]: 10155 | CC50 [8]: 4580 ± 1100 µM

Cc1ccc(C(=O)Nc2ccn(C3O[C@H](CO)[C@@H](O)C3(F)F)c(=O)n2)cc1 (stereo partly drawn) [VV-036]
IC50 [1]: 0.0431 ± 0.0044 µM | Therapeutic Index (TC50/IC50) [1]: 7650 | CC50 at 48 h [3]: 329 ± 57 µM | CC50 at 48 h [4]: 240 ± 40 µM

COc1ccc(C(=O)Nc2ccn(C3O[C@H](CO)[C@@H](O)C3(F)F)c(=O)n2)c(OC)c1OC (stereo partly drawn) [VV-022]
IC50 [1]: 0.0346 ± 0.0035 µM | Therapeutic Index (TC50/IC50) [1]: 8670 | CC50 at 48 h [2]: 300 ± 39 µM | solubility [5]: > 500 µM
